Here are results for 5 molecules from paper PMC4574636 (Biochemical pharmacology, 2015).

Read-outs that look alike come from different tables or passages of the source.

The subject of data set [1] is aldehyde oxidase (AOX).
The target of data set [2] is T1, aldehyde oxidase (AOX) (Homo sapiens, UniProt Q06278).
T1 sequence (Q06278 1-1338): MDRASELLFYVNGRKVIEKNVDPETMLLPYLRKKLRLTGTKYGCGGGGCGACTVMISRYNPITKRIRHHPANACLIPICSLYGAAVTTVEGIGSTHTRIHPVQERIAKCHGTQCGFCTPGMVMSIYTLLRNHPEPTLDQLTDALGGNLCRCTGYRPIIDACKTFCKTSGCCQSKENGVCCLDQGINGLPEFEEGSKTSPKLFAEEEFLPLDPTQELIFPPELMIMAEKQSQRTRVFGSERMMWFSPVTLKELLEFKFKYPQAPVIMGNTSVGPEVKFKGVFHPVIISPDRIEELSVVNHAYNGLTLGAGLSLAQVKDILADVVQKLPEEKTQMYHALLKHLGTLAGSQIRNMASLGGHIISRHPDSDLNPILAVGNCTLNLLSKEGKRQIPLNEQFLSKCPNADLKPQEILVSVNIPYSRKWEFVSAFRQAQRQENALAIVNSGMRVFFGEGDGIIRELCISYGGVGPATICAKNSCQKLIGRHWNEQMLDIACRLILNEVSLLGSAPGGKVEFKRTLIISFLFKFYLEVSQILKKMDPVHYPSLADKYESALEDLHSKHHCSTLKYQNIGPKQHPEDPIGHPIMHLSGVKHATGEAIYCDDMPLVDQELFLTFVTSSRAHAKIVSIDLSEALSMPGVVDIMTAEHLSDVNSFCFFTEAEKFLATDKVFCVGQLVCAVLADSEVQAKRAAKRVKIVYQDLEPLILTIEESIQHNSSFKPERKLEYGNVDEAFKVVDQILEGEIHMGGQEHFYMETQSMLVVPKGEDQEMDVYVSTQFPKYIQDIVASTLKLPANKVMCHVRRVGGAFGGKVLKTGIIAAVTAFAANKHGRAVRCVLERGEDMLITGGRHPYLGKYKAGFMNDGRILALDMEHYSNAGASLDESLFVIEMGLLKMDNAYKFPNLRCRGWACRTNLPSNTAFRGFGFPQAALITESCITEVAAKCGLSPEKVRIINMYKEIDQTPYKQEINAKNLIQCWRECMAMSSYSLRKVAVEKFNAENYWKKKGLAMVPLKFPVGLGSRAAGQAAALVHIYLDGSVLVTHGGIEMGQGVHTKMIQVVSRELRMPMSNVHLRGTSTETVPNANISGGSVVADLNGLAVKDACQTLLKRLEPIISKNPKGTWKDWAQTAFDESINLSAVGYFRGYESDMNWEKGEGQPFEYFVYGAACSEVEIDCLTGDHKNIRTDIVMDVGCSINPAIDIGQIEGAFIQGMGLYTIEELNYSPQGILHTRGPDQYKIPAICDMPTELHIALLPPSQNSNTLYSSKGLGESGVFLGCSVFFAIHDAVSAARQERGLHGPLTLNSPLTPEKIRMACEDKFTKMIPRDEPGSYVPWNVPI

Data set [3] deals with T1, aldehyde oxidase (AOX). Nature of the data set: Metabolism kinetics of DACA and phthalazine in human cytosol.
Data set [4] relates to aldehyde oxidase (AOX). Description: Metabolism kinetics of DACA and phthalazine in rabbit cytosol. As to conditions: for kcat: rabbit cytosol.
Substrate in data set [5]: CN(Cc1cnc2nc(N)nc(N)c2n1)c1ccc(C(=O)N[C@@H](CCC(=O)O)C(=O)O)cc1
Substrate in data set [6]: c1ccc2cnncc2c1
Nature of the data set: cells, lysate or membranes named. As to conditions: other: human cytosol; unit not given.

On to `CN(C)CCNC(=O)c1cccc2cc3ccccc3nc12` [DACA], for which the Km was 2 µM with aldehyde oxidase (AOX) [1] and 7 µM at aldehyde oxidase (AOX) [2]. In addition, the catalytic constant (kcat) at aldehyde oxidase (AOX) [3] was 2.22 s⁻¹; in the data set with aldehyde oxidase (AOX) [4] it was 182 min⁻¹.

As to `c1ccc2cnncc2c1` [phthalazine], the Km in the data set on aldehyde oxidase (AOX) [4] (New Zealand, rabbit, cytosol) turned out to be 23 µM. For the same molecule, the kcat with aldehyde oxidase (AOX) [4] was 16,000 min^−1.

B1: AOX1 (Macaca mulatta) (protein)
chain: MDRASELLFYVNGRKVIEKNVDPETMLLPYLRKKLRLTGTKYGCGGGGCGACTVMISRYNPITNRIRHHPANACLIPICSLYGTAVTTVEGIGSTHTRIHPVQERIAKCHGTQCGFCTPGMVMSIYTLLRNHPEPTLDQLTDALGGNLCRCTGYRPIIDACKTFCETSGCCQSKENGVCCLDQGINGLPEFEEGSKTSPKLFAEEEFLPLDPTQELIFPPELMIMAEKQPQRTRVFGSERMMWFSPVTLKELLEFKFKYPQAPVIMGNTSVGPQVKFKGVFHPVIISPDRIEELSVVNRTHNGLTLGAGLSLAQVKDILADVVQKLPEEKTQTYHALLKHLGTLAGSQIRNMASLGGHIISRHPDSDLNPILAVGNCTLNLLSKEGKRQIPLNEQFLSKCPNADLKPQEILVSVNIPYSRKLEFVSAFRQAQRQENALAIVNSGMRVFFGEGHGIIRELSISYGGVGPATICAKNSCQKLIGRHWNEEMLDTACRLVLEEVSLSGSAPGGKVEFKRTLIISFLFKFYLEVSQILKKMDPIHYPSLADKYESALEDLHSKHHCSTLKYQHMGPKQHPEDPIGHPIMHLSGVKHATGEAIYCDDMPPVDQELFLTFVTSSRAHAKIVSIDLSEALSMPGVVDVITAEHLSDVNSFCFFTEAEEFLATDKVFCVGQLVCAVLADSEVQAKQAAKQVKIVYQDLEPLILTIKEAIQHNSFFEPERKLEYGNVDEAFKVVDQILEGEIHMGGQEHFYMETQSMLVVPKGEDQEMDVYVSTQFPKYIQDIVASTLKLPANKVMCHVKRVGGAFGGKAFKTGVIAAVTAFAANKHGRAVRCVLERGEDMLITGGRHPYLGKYKAGFMNDGRILALDMEHYSNAGNSLDESLLVIEMGLLKMDNAYKFPNLRCRGWACRTNLPSNTAFRGFGFPQAGLITESCIMEVAAKCGLSPEKVRMINMYKEIDQTPYKQEINAKNLIQCWRECMAVSSYSLRKAAVEKFNAENYWKKKGLAMVPLKYPVGLGSRAAGQAAALVHIYLDGSVLVTHGGIEMGQGVHTKMIQVVSRELGMPISNVHLRGTSTETVPNANVSGGSVVADLNGLAVKDACQILLKRLEPIISKNPKGTWKDWAQTAFDESISLSAVGYFRGYESDINWEKGEGHPFEYFVYGAACSEVEIDCLTGDHKNIRTDIVMDVGCSINPAIDIGQIEGAFIQGMGLYTIEELNYSPQGVLHTRGPDQYKIPAICDTPTEFHISLLPPSENSNTLYSSKGLGESGVFLGCSVFFAIHDAVSAARRERGLHGPLSLNSPLTPEKIRMACEDKFTKMIPRDEPGSCVPWNVPI
Turning to B1, the Michaelis-Menten constant (Km) in data set [5] amounted to 323 ± 123 µM.

B2: AOX1 (Homo sapiens) (protein)
chain: MDRASELLFYVNGRKVIEKNVDPETMLLPYLRKKLRLTGTKYGCGGGGCGACTVMISRYNPITKRIRHHPANACLIPICSLYGAAVTTVEGIGSTHTRIHPVQERIAKCHGTQCGFCTPGMVMSIYTLLRNHPEPTLDQLTDALGGNLCRCTGYRPIIDACKTFCKTSGCCQSKENGVCCLDQGINGLPEFEEGSKTSPKLFAEEEFLPLDPTQELIFPPELMIMAEKQSQRTRVFGSERMMWFSPVTLKELLEFKFKYPQAPVIMGNTSVGPEVKFKGVFHPVIISPDRIEELSVVNHAYNGLTLGAGLSLAQVKDILADVVQKLPEEKTQMYHALLKHLGTLAGSQIRNMASLGGHIISRHPDSDLNPILAVGNCTLNLLSKEGKRQIPLNEQFLSKCPNADLKPQEILVSVNIPYSRKWEFVSAFRQAQRQENALAIVNSGMRVFFGEGDGIIRELCISYGGVGPATICAKNSCQKLIGRHWNEQMLDIACRLILNEVSLLGSAPGGKVEFKRTLIISFLFKFYLEVSQILKKMDPVHYPSLADKYESALEDLHSKHHCSTLKYQNIGPKQHPEDPIGHPIMHLSGVKHATGEAIYCDDMPLVDQELFLTFVTSSRAHAKIVSIDLSEALSMPGVVDIMTAEHLSDVNSFCFFTEAEKFLATDKVFCVGQLVCAVLADSEVQAKRAAKRVKIVYQDLEPLILTIEESIQHNSSFKPERKLEYGNVDEAFKVVDQILEGEIHMGGQEHFYMETQSMLVVPKGEDQEMDVYVSTQFPKYIQDIVASTLKLPANKVMCHVRRVGGAFGGKVLKTGIIAAVTAFAANKHGRAVRCVLERGEDMLITGGRHPYLGKYKAGFMNDGRILALDMEHYSNAGASLDESLFVIEMGLLKMDNAYKFPNLRCRGWACRTNLPSNTAFRGFGFPQAALITESCITEVAAKCGLSPEKVRIINMYKEIDQTPYKQEINAKNLIQCWRECMAMSSYSLRKVAVEKFNAENYWKKKGLAMVPLKFPVGLGSRAAGQAAALVHIYLDGSVLVTHGGIEMGQGVHTKMIQVVSRELRMPMSNVHLRGTSTETVPNANISGGSVVADLNGLAVKDACQTLLKRLEPIISKNPKGTWKDWAQTAFDESINLSAVGYFRGYESDMNWEKGEGQPFEYFVYGAACSEVEIDCLTGDHKNIRTDIVMDVGCSINPAIDIGQIEGAFIQGMGLYTIEELNYSPQGILHTRGPDQYKIPAICDMPTELHIALLPPSQNSNTLYSSKGLGESGVFLGCSVFFAIHDAVSAARQERGLHGPLTLNSPLTPEKIRMACEDKFTKMIPRDEPGSYVPWNVPI
For the molecule B2, in data set [5], the Michaelis-Menten constant (Km) was determined as 2800 µM, the maximal velocity (Vmax) fell in the range of 40 to 70 pmol/min/mg and the catalytic efficiency (kcat/Km) is 15 M⁻¹ s⁻¹.

B3: aldehyde oxidase (AOX) (Homo sapiens) (protein)
chain: MDRASELLFYVNGRKVIEKNVDPETMLLPYLRKKLRLTGTKYGCGGGGCGACTVMISRYNPITKRIRHHPANACLIPICSLYGAAVTTVEGIGSTHTRIHPVQERIAKCHGTQCGFCTPGMVMSIYTLLRNHPEPTLDQLTDALGGNLCRCTGYRPIIDACKTFCKTSGCCQSKENGVCCLDQGINGLPEFEEGSKTSPKLFAEEEFLPLDPTQELIFPPELMIMAEKQSQRTRVFGSERMMWFSPVTLKELLEFKFKYPQAPVIMGNTSVGPEVKFKGVFHPVIISPDRIEELSVVNHAYNGLTLGAGLSLAQVKDILADVVQKLPEEKTQMYHALLKHLGTLAGSQIRNMASLGGHIISRHPDSDLNPILAVGNCTLNLLSKEGKRQIPLNEQFLSKCPNADLKPQEILVSVNIPYSRKWEFVSAFRQAQRQENALAIVNSGMRVFFGEGDGIIRELCISYGGVGPATICAKNSCQKLIGRHWNEQMLDIACRLILNEVSLLGSAPGGKVEFKRTLIISFLFKFYLEVSQILKKMDPVHYPSLADKYESALEDLHSKHHCSTLKYQNIGPKQHPEDPIGHPIMHLSGVKHATGEAIYCDDMPLVDQELFLTFVTSSRAHAKIVSIDLSEALSMPGVVDIMTAEHLSDVNSFCFFTEAEKFLATDKVFCVGQLVCAVLADSEVQAKRAAKRVKIVYQDLEPLILTIEESIQHNSSFKPERKLEYGNVDEAFKVVDQILEGEIHMGGQEHFYMETQSMLVVPKGEDQEMDVYVSTQFPKYIQDIVASTLKLPANKVMCHVRRVGGAFGGKVLKTGIIAAVTAFAANKHGRAVRCVLERGEDMLITGGRHPYLGKYKAGFMNDGRILALDMEHYSNAGASLDESLFVIEMGLLKMDNAYKFPNLRCRGWACRTNLPSNTAFRGFGFPQAALITESCITEVAAKCGLSPEKVRIINMYKEIDQTPYKQEINAKNLIQCWRECMAMSSYSLRKVAVEKFNAENYWKKKGLAMVPLKFPVGLGSRAAGQAAALVHIYLDGSVLVTHGGIEMGQGVHTKMIQVVSRELRMPMSNVHLRGTSTETVPNANISGGSVVADLNGLAVKDACQTLLKRLEPIISKNPKGTWKDWAQTAFDESINLSAVGYFRGYESDMNWEKGEGQPFEYFVYGAACSEVEIDCLTGDHKNIRTDIVMDVGCSINPAIDIGQIEGAFIQGMGLYTIEELNYSPQGILHTRGPDQYKIPAICDMPTELHIALLPPSQNSNTLYSSKGLGESGVFLGCSVFFAIHDAVSAARQERGLHGPLTLNSPLTPEKIRMACEDKFTKMIPRDEPGSYVPWNVPI
Take B3: the kcat in data set [6] stood at 4.37 s⁻¹.

The term Km denotes the concentration of substrate that gives half-maximal velocity. The term kcat denotes the number of substrate molecules converted per active site and unit of time at saturation. The term Vmax denotes the top rate of the reaction or transport when substrate is in excess. A word on the kcat/Km: it is the turnover number divided by the Michaelis constant.
